Data on 2 compounds can be found in article PMC6320337, “Hepatocyte growth factor activator inhibitor-2 stabilizes Epcam and maintains epithelial organization in the mouse intestine” (Communications Biology, 2019).

In one assay the target is T1, hepsin (Homo sapiens, UniProt P05981).
T1 construct: gene HPN
The experiment in a line: fluorescent kinetic enzyme inhibition assay.

Another assay addresses T2, matriptase (Homo sapiens, UniProt Q9Y5Y6).
T2 construct: gene ST14; recombinant catalytic domain (#3946-SEB, R&D Systems)
T2 sequence (Q9Y5Y6 615-855 limits assumed): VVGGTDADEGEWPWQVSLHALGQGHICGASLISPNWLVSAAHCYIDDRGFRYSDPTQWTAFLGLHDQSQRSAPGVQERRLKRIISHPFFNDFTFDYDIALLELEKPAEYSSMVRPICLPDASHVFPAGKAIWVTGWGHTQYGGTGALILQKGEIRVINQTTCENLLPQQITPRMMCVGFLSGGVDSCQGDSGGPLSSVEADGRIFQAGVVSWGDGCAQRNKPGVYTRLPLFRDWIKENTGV
The experiment in a line: fluorescent kinetic enzyme inhibition assay. The assay is classed as biochemical.

T1 sequence (P05981 45-162 limits assumed): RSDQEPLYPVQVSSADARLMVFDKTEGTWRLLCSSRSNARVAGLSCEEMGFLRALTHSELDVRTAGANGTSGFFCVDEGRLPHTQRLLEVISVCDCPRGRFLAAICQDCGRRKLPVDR
T1 sequence (P05981 163-417 limits assumed): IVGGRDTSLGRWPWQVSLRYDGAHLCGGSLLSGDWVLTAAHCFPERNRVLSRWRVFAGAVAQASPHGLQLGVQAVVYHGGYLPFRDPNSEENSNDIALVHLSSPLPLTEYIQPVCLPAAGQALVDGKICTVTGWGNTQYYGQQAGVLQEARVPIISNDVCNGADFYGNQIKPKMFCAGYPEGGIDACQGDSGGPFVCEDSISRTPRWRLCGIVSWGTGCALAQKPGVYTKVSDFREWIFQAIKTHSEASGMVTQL

Turning to `N=C(N)NCCC[C@H](NC(=O)[C@H](CC(N)=O)NC(=O)OCC1c2ccccc2-c2ccccc21)C(=O)c1nc2ccccc2s1` [ZFH7185-3], the Ki (commonly the dissociation constant of the complex between target and ligand, obtained from inhibition or displacement) at hepsin came to 1.7 nM; at matriptase it was 106 nM.
`N=C(N)NCCC[C@H](NC(=O)CNC(=O)OCC1c2ccccc2-c2ccccc21)C(=O)c1nc2ccccc2s1` [ZFH7185-8]: the Ki was 831 nM at hepsin and 0.13 nM on matriptase.
